Reference: US20120238547A1, “2, 3, 6 - TRIAMINO SUBSTITUTED PYRIDINES AS KV7 (KCNQ) CHANNEL MODULATORS” (NEUROSEARCH A/S, priority 2009, published 2012)

Tests used:
human Kv7.2+3 [1] = biological target: T1, human Kv7.2+3 (Homo sapiens, UniProt O43525+O43526); experiment: FLIPR-based thallium (I) influx characterization of Kv7.2+3 modulators; type: cell-based; conditions: for EC50: HEK293 cells over-expressing human Kv7.2+3, Tl+ influx, BTC-AM, 50% of channel activity compared to retigabine control responses; for Efficacy: maximal response relative to the reference (retigabine) response
T1 construct: expressed in transfected cells; host or cells: HEK293
Experimental: This experiment determines the ability of a test compound to modulate the activity of Kv7.2+3 channels heterologously expressed in human HEK293 cells. The ability is determined relative to retigabine. The activity is determined using a standard thallium (I) sensitive assay, e.g. using a fluorometric method in a Fluorescent Image Plate Reader (FLIPR) as described below in more detail.
Full concentration/response curves are generated and EC50 values are calculated based on max values. EC50 values (Effective Concentration) represent the concentration of the test substance, at which 50% of the channel activity is obtained when compared to retigabine control responses. Maximal response determined relative to the reference (retigabine) response is calculated.
Human HEK293 cells over-expressing human Kv7.2+3 are grown in culture medium (DMEM supplemented with 10% foetal bovine serum), in polystyrene culture flasks ([…]) in a humidified atmosphere of 5% CO2 in air, at 37° C. Cell confluence should be 80-90% on day of plating. Cells are rinsed with 4 ml of PBS (phosphate buffered saline) and incubated 2 min with 1 ml of Trypsin-EDTA. After addition of 25 ml of culture medium cells are re-suspended by trituration with a 25 ml pipette.
The cells are seeded at a density of ˜3×10^6 cells/ml (25 μl/well) in blackwalled, clear bottom, 384-well plates pre-treated with 0.01 g/l poly-D-lysin (20 μl/well for ≧30 min). Plated cells were allowed to proliferate for 24 h before loading with dye.
BTC-AM (50 mg, Invitrogen) is added 25.5 μl DMSO. The BTC-AM stock solution (2 mM) is diluted to a final concentration of 2 μM in Cl^− free assay buffer (in mM: 140 Na^−-gluconate, 2.5 K^+-gluconate, 6 Ca2^+-gluconate, 1 Mg^2+ gluconate, 5 glucose, 10 HEPES, pH 7.3) containing 2 μM ouabain, 2 mM amaranth and 1 mM tartrazine. […]
After the loading period, the Tl^+-sensitive BTC fluorescence signal is measured over time using a FLIPR.
• Temperature: Room temp. • First addition: 12 μl test or control compound after 15 sec at a rate of 30 μl/sec and starting height of 20 μl • Second addition: 12 μl stimulus buffer (Cl^− free assay buffer supplemented with 1 mM Tl2SO4, 5 mM K2SO4 as well as the quenchers amaranth (2 mM) and tartrazine (1 mM)) is added after an additional 3 minutes at a rate of 30 μl/sec and starting height of 30 μl • Reading intervals: First sequence—3 sec×5, 2 sec×24 and 5 sec×25 • Second sequence—1 sec×5, 2 sec×24 and 5 sec×36 Addition plates (compound plate and stimulus plate) are placed in positions 2 and 3, respectively. […] Fluorescence obtained after stimulation is corrected for the mean basal fluorescence (in Cl^− free assay buffer). […]

human Kv7.2+3 [2] = biological target: T1, human Kv7.2+3; experiment: Patch-clamp on HEK293 cell lines stably expressing human Kv7.2+3 channels; type: cell-based; conditions: current relative to baseline current defined as 100%
Excerpt: The effect obtained by these channel activators is described as a percentage increase in baseline current at a given concentration. The baseline current is defined as 100%, and an increase in current is expressed relative to this, i.e. an increase from 1 nA to 1.2 nA is reported as 120%.

| EC50 (human Kv7.2+3 [1]) [nM] | Efficacy (human Kv7.2+3 [1]) [%] | IK (%) conc. 0.3 μM, −30 mV, 20 ms (human Kv7.2+3 [2]) | IK (%) conc. 0.03 μM, −30 mV, 20 ms (human Kv7.2+3 [2]; 0.03 μM) [%] | SMILES |
| --- | --- | --- | --- | --- |
| 1200 | 98 | 293 (n = 2) % | – | Cc1ccoc1C(=O)Nc1c(C)cc(N2CCCOCC2)nc1N1CC[C@@H](F)C1 [Compound 1.1, 3-Methyl-furan-2-carboxylic acid [2-((R)-3-fluoro-pyrrolidin-1-yl)-4-methyl-6-[1,4]oxazepan-4-yl-pyridin-3-yl]-amide] |
| 190 | 98 | 428 (n = 5) % | 136 | Cc1ccoc1C(=O)Nc1c(C)cc(N2CCOCC2)nc1N1CC[C@@H](F)C1 [Compound 1.2, 3-Methyl-furan-2-carboxylic acid [2-((R)-3-fluoro-pyrrolidin-1-yl)-4-methyl-6-morpholin-4-yl-pyridin-3-yl]-amide] |
